# Results reported in US7687079B2, “Methods of treating ileus” (priority 2002, dated 2010).
# Key:
# [1] = test system: small intestinal circular muscle; assay: in vitro circular muscle contractility (spontaneous and bethanechol-stimulated) after SITx; type: in vivo, rat
# Protocol: To determine whether CO is protective against ileus associated with small bowel transplantation, orthotopic SITx was performed in syngenic Lewis rats. SITx with caval drainage was performed using a previously described procedure. […] The graft was perfused via the aortic segment with 5 ml chilled Ringer's lactate solution, and the intestinal lumen was irrigated with 20 ml of cold saline solution containing 0.5% neomycin-sulfate (Sigma, St. Louis, Mo.). End-to-side anastomoses between the graft aorta and the recipient infrarenal aorta, and between the graft portal vein and recipient vena cava, were performed with 10-0 Novafil™ suture. The cold ischemic time was 1 hour. The entire recipient intestine was removed and the enteric continuity was restored by proximal and distal end-to-end intestinal anastomoses. Recipient animals were given 20 mg/day prophylactic cefamandole nafate for 3 postoperative days. Transplanted recipients were given water 3 hours after surgery, and were fed 24 hours after surgery.
# Four groups of animals were examined in this study, two of which received a SITx. Group 1 consisted of unoperated normal rats. Group 2 animals were exposed to CO with no surgery. In Group 3, syngeneic SITx were performed and the recipients kept in room air. Group 4 consisted of SITx recipients that were placed in the CO chamber for 1 hour before surgery and then re-exposed to CO immediately following surgery until sacrificed. In both Groups 3 and 4, normal LEW rats served as donors.
# The animals were exposed to CO at a concentration of 250 ppm. Briefly, 1% CO in air was mixed with air (21% oxygen) in a stainless steel mixing cylinder and then directed into a 3.70 ft^3 glass exposure chamber at a flow rate of 12 L/min. A CO analyzer (Interscan, Chatsworth, Calif.) was used to measure CO levels continuously in the chamber. CO concentrations were maintained at 250 ppm at all times. The animals were supplied food and water during the exposures.
# The effect of CO treatment on intestinal dysmotility in transplanted grafts was assessed both in vitro and in vivo. […] In vitro circular muscle mechanical activity was measured as previously described (Eskandari et al., Am. J. Physiol. 273(3 Pt 1):G727-34 (1997)). Rats were anesthetized and killed by exsanguination 24 hours post-operatively. A segment of mid-jejunum was pinned in a Sylgaard™ lined dissecting dish containing pre-oxygenated Krebs-Ringer-bicarbonate buffer (KRB; in mM: 137.4 Na^+, 5.9 K^+, 2.5 Ca^2+, 1.2 Mg^2+, 134 Cl^−, 15.5 HCO3^−, 1.2 H2PO4^−, and 11.5 glucose) that was equilibrated with 97% O2/3% CO2. The intestine was opened along the mesenteric border and the mucosa removed by stripping with fine forceps. Full-thickness strips of muscularis (1×6 mm) were cut parallel to the circular muscle layer. Muscle strips were mounted in standard horizontal mechanical organ chambers that were continuously superfused with pre-oxygenated KRB maintained at 37° C. One end of each strip was attached by ligature to a fixed post and the other to an isometric force transducer (WPI, Sarasota, Fla.). Strips were allowed to equilibrate for 1 hour, after which they were incrementally stretched to the length at which maximal spontaneous contraction occurred (Lo). […] Contractile activity was calculated by integrating the area under the trace, normalized by converting the weight and length of the strip to square millimeters of tissue (1.03 mg/mm^2), and reported as g/s/mm^2.
# TNFα mRNA = TNFα mRNA expression in muscularis externae of intestinal grafts (real time RT-PCR); type: in vivo, rat; conditions: SITx recipients treated with CO, 4 hours after reperfusion
# Protocol: The effects of inhalation of CO on transplant-induced pro-inflammatory and anti-inflammatory gene expression was assessed in muscularis extracts by RT-PCR. Muscularis extemae was collected from normal intestine and transplanted grafts 4 hours postoperatively and snap frozen in liquid nitrogen. This time point falls within the range of maximum inflammatory mediator expression that occurs between 3 and 6 hours following abdominal incision. Total RNA extraction was performed using the guanidium-thiocyanate phenol-chloroform extraction method as described previously (Eskandari et al., Am. J. Clin. Pathol. 75(3):367-370 (1997)). RNA pellets were resuspended in RNA-secure resuspension solution (Ambion Inc., Austin, Tex.), followed by removal of potentially contaminating DNA by treatment with DNase I (DNA-Free Kit, Ambion Inc., Austin, Tex.). Equal aliquots (5 μg) of total RNA from each sample were quantified by spectrophotometry (wavelength […]) and aliquoted at a concentration of 40 ng/μl. Peak mRNA expression was quantified in duplicate by SYBR Green two-step, real-time RT-PCR. […] Real-time PCR data were plotted as the ΔRn, fluorescence signal versus the cycle number. […] Quantification of mRNA expression was normalized to GAPDH and calculated relative to control using the comparative CT method (Schmittgen et al., J. Biochem. Biophys. Methods 46(1-2):69-8 (2000)). […]
smiles,measurement,setting,value
"[C-]#[O+] [CO, carbon monoxide]",peak contractile force,"[1]; SITx + CO 250 ppm, 100 μM bethanechol",3.6±0.7 g/mm^2/s
same,Contractile force,"[1]; SITx + CO, Table 2",3.0 ± 0.4 g/s/mm^2
same,spontaneous contractile activity,"[1]; transplanted (SITx) rats, CO 250 ppm, 24 hours after reperfusion",restored
same,peak contractile force,"[1]; unoperated animals treated with CO 250 ppm, bethanechol",3.2±0.5 g/mm^2/s
same,spontaneous contractile activity,"[1]; unoperated control rats, CO 250 ppm for 24 hours",no effect
same,TNFα expression,TNFα mRNA,unchanged
